According to a melting point compilation (Tetko et al.; mined from patent text by program, amines drawn as free bases though some values may be those of a salt):

| SMILES | melting point [°C] |
| --- | --- |
| CCOC(=O)c1ccc(NC(=S)NCCn2c(C)ccc2C)cc1 | 155 to 156 |
| C#Cc1ccc(N(c2ccc(C#C)cc2)c2ccc(C#C)cc2)cc1 | 115 |
| CC(=O)SC1CN(C(C(=O)C2CC2)c2ccccc2F)C1 (stereo not given) | 49 to 52 |
| CCc1[nH]n(C2CCCC2)c2nc(-c3ccc4c(c3)CC(C)O4)nc(=O)c1-2 (stereo not given) | 164 to 165 |
| Cc1ccc(S(=O)(=O)C2(CC#Cc3ccc(Cl)cc3)CC(=O)NC2=O)cc1 (stereo not given) | 186 to 188 |
| Cc1cc(NC(=O)C(=O)N(C(C)C)C(C)C)cc(C)c1S(=O)(=O)C[N+](=O)[O-] | 97 to 98 |
| O=C1Nc2cc(Br)ccc2Oc2cscc21 | 245 to 249 |
| CCNC(=O)c1cc2ccc(OC)cc2n1CCNC(C)=O | 135 to 136 |
| CCOC(=O)CCCc1ccc(N[C@@H](CCC(N)=O)C(=O)O)cc1 | 179 to 180 |
| Cc1cc(C)cc(C(=O)NC(=S)Nc2c(O)cc(C)c(Br)c2C)c1 | 164 to 166 |
| FC(F)(F)/C(=C(/c1ccccc1)c1ccc(OCCBr)cc1)c1ccccc1 | 135 to 138 |
| Cc1nccc2[nH]c(=O)ccc12 | 235 to 237 |
| COc1ccc(NC(=O)c2ccccc2-c2cccc(F)c2)cc1 | 161 to 163 |
| CCOC(=O)C(=CNC1CC1)C(=O)c1c(F)c(F)c(Br)c(F)c1F | 167 to 168 |
| COc1ccccc1-c1n[nH]c(-c2ccccc2C)n1 | 160 to 161 |
| O=C(O)[C@H](Cc1ccc(CC(F)(F)C(F)(F)F)cc1)[C@@H](O)c1cccc(Cl)c1 (racemic) | 150 to 151 |
| CN1CCN2c3ccccc3Cn3c(c(C=O)c4ccccc43)C2C1 (stereo not given) | 260 to 266 |
| COc1cc(N)c(Cl)cc1C(=O)NCC1CCN(CCCCCOc2ccc(F)cc2)CC1 | 105 to 107 |
| COc1nc(F)cc2nc(SCc3ccccc3)nn12 | 121 to 122 |
| COCC1(O)CCN(c2c(F)cc([N+](=O)[O-])cc2F)CC1 | 84 to 86 |

| SMILES | melting point [°C] |
| --- | --- |
| COc1c(C)c2c(c(NS(C)(=O)=O)c1C/C=C(\C)CCC(=O)O)C(=O)OC2 | 170 to 176 |
| C[C@@H](NC(=O)c1ccc(-c2cc(C(F)(F)F)nn2C)s1)[C@](O)(Cn1cncn1)c1ccc(F)cc1F | 106 to 110 |
| OC1(c2cnccn2)CN2CCC1C2 (stereo not given) | 180 to 183 |
| CCOC(=O)c1ccc(NCCCOc2cccc3ccccc23)cc1 | 93 to 94 |
| O=C(N1CCc2cc(O)c(O)cc2C(c2ccccc2)C1)C(F)(F)F (stereo not given) | 182 to 188 |
| O=C1C=CC(O)(c2nc3ccccc3s2)C=C1 | 63 to 66 |
| CCN(C)c1ccc(Cn2nnc(-c3ccc(OC(=O)C(C)(C)C)cc3)n2)cc1 | 122 to 125 |
| Cc1cc(F)ccc1C(=Cc1nnnn1C)c1ccc(F)cc1C | 120 to 125 |
| CSc1cc2c(cc1F)C(=O)c1cc3ccccc3cc1C2=O | 230 to 235 |
| COC(OC)C(C)(O)c1cnc(C=O)s1 (stereo not given) | 98 to 99 |
| CC(C)(COCc1cccc(Oc2ccccc2)c1)c1ccc(O)c(Cl)c1 | 68 to 69 |
| CCn1nc(O)nc1S | 193 to 195 |
| CN1CCN(C(=O)c2ccc([N+](=O)[O-])cc2)CC1 | 100 to 101 |
| C=CCCCN(CCCC=C)Cc1noc(-c2ncn3c2CN(C)C(=O)c2ccccc2-3)n1 | 167 to 169 |
| O=C1Nc2cccnc2N(C(=O)NCCN2CCCCC2CNCC2CCCC2)c2ccccc21 (stereo not given) | 157 to 158 |
| COC(=O)C(=CN1CCCC1)C(=O)c1cc(F)c(Cl)cc1Cl | 74 to 76 |
| O=C1[C@@H]2[C@H](O)CCN2C(=O)N1c1ccc(Br)c2ccccc12 (relative stereo) | 204 to 206 |
| Clc1ccc2ncc(Cl)n2n1 | 120 to 121 |
| O=C1N(Cc2ccc(C(F)(F)F)o2)c2c(C(F)(F)F)cccc2C12COc1cc3c(cc12)OCO3 (stereo not given) | 95 to 98 |
| C[C@]1(CN2CCN(C(=O)CSc3ccc(Cl)cc3)CC2)Cn2cc([N+](=O)[O-])nc2O1 | 142 to 145 |
